In patent US8093274B2, “Inhibitors of protein prenyltransferases” (The Regents of the University of California, priority 2006, dated 2012):
Like-named read-outs stand apart in the source and are kept apart here.

Legend:
[1] = target: GGTase I (substrate K-Ras4B) (Homo sapiens, UniProt P49354+P53609); assay: GGTase I filter-binding assay with K-Ras4B as substrate; format: biochemical; conditions: read-out: % activity of GGTase I for protein K-Ras4B in the presence of the compound
Method: (§1) The pilot library was screened for inhibitors of protein geranylgeranyltransferase type I. Protein prenyltransferase assays were carried out by using filter binding. Two different substrates, RhoA and K-Ras4B, were used for the assay. RhoA ends with the CaaL motif and is an exclusive substrate for GGTase I, while K-Ras4B ends with the CaaX motif and is modified by both GGTase I and FTase.
(§2) The % activity of GGTase I was determined as follows: a working solution that contained each compound in DMSO at the concentration of 1 mM was prepared. The working solution was added to GGTase I reaction mixture so that the final concentration of the compound is 50 μM. GGTase I activity was assayed by incubating [^3H]GGPP with K-Ras4B or RhoA protein in the presence of GGTase I and examining radioactivity incorporated into the substrate protein by spotting onto a filter paper. After washing with TCA, ethanol and acetone, the radioactivity retained on the filter was determined by the use of a scintillation counter. GGTase I activity in the presence of DMSO was taken as a 100% value and the activity in the presence of the compound was shown as percent activity compared with the 100% value. […] For 6-aryl-4-mercapto-N-sulfonyl-piperidine-3-carboxylic acid 11 the 4-mercapto substituent appeared critical to endowing GGTase inhibitory activity. […] 4-Chlorobenzylthio substituent was the next best; 12 compounds out of 21 containing the 4-chlorobenzylthio moiety were active. 4-Benzylthio substituent was also good; 7 piperidines out of 21 bearing 4-benzylthio group were active. […] 19 imines (C15>C12=C41>C40>C01=C11>C05=C10=C30=C35=C37=C38>C02, C03, C04, C06, C39=C43) out of 21 appeared in the GGTIs. […] This corresponds to 47 6-aryl-4-mercapto-N-sulfonyl-piperidine-3-carboxylic acids out of 357 compounds.
(§3) A collection of 138 heterocycles was screened for their ability to inhibit the activity of human GGTase-I to geranylgeranylate K-Ras4B or RhoA. Purified GGTase-1 was incubated with its substrate protein K-Ras4B or RhoA, [^3H]GGPP, and the 138 compounds. After 30 min, the degree of incorporation of tritiated geranylgeranyl groups was measured using a scintillation counter.

[2] = target: GGTase I (substrate RhoA) (Homo sapiens, UniProt P49354+P53609); assay: GGTase I filter-binding assay with RhoA as substrate; format: biochemical; conditions: read-out: % activity of GGTase I for protein RhoA in the presence of the compound
Method: as §1, §2, §3
The GGTase-I assay was carried out using RhoA as a substrate protein, GGTase-I (JENA Bioscience) and [3H]geranylgeranyl pyrophosphate. Incubation was for 30 min at 37 C. GGTase-H (or RabGGTase) assay was carried out using YPT1 as a substrate protein, GGTase-H (Calbiochem, San Diego, Calif.) plus REP1 (Calbiochem) and [3H]geranylgeranyl pyrophosphate. Incubation was for 30 min at 37 C. FIGS. 20D-20F show the three dimensional structure of GGTase I (D), FTsse (E) and GGTase II (F) which can be obtained from X-ray diffraction studies of protein crystals.

[3] = 50 μM compound, DMSO = 100%, smaller numbers indicate better inhibition, first number of pair
[4] = 50 μM compound, DMSO = 100%, smaller numbers indicate better inhibition, second number of pair

| activity at 50 µM [1, 3] | activity at 50 µM [2, 4] | SMILES | activity at 50 µM [1] | activity at 50 µM [2] |
| --- | --- | --- | --- | --- |
| 23.4% | 6.1% | COc1ccc([C@H]2C(C(=O)O)=C[C@@H](C(C)(C)C)N2S(=O)(=O)c2ccc(C)cc2)cc1OC |  |  |
| 22.4% | 4.9% | C=CCS[C@H]1[C@@H](C(=O)O)[C@H](c2ccc(Cl)cc2)N(S(=O)(=O)c2ccccc2C)[C@@H]1CC1CCCC1 |  |  |
|  |  | Cc1ccc(S(=O)(=O)N2[C@@H](c3cccc(F)c3)C(C(=O)O)=C[C@H]2C(C)(C)C)cc1 | 23.7% | 9.1% |
| 28.1% | 5.9% | CC(C)CCS[C@H]1[C@@H](C(=O)O)[C@H](c2ccc(Cl)cc2)N(S(=O)(=O)c2ccccc2)[C@@H]1C(C)C |  |  |
| 31.7% | 6.1% | C=CCS[C@H]1[C@@H](C(=O)O)[C@H](c2ccc(C(C)C)cc2)N(S(=O)(=O)c2ccc(C)cc2)[C@@H]1CC1CCCC1 |  |  |
| 11% | 7% | Cc1ccc(S(=O)(=O)N2C(c3cccc(Cl)c3)CC=C(C(=O)O)[C@@H]2c2cccc(Br)c2)cc1 (stereo partly shown) |  |  |
| 31.9% | 8.2% | Cc1ccc(S(=O)(=O)N2[C@H](CC3CCCC3)[C@@H](SCCC(=O)OC(C)(C)C)[C@@H](C(=O)O)[C@@H]2c2cccc(F)c2)cc1 |  |  |
| 5.4% | 3% | Cc1ccccc1S(=O)(=O)N1C(c2ccc(Cl)cc2)CC=C(C(=O)O)[C@@H]1c1cccc(F)c1 (stereo partly shown) |  |  |
| 21.5% | 6% | C=CCS[C@H]1[C@@H](C(=O)O)[C@H](c2ccc(C#N)cc2)N(S(=O)(=O)c2ccc(C)cc2)[C@@H]1CCCCCC |  |  |
| 15.6% | 12.4% | Cc1cccc([C@H]2C(C(=O)O)=CCC(c3ccc(Cl)cc3)N2S(=O)(=O)c2ccccc2C)c1 (stereo partly shown) |  |  |
| 15.1% | 6.8% | C=CCS[C@H]1[C@@H](C(=O)O)[C@H](c2ccc(Cl)c(Cl)c2)N(S(=O)(=O)c2ccc(C)cc2)[C@@H]1CCCCCC |  |  |
| 12.1% | 8.6% | C=CCS[C@H]1[C@@H](C(=O)O)[C@H](c2ccc(Cl)c(Cl)c2)N(S(=O)(=O)c2ccc(C)cc2)[C@@H]1CC1CCCC1 |  |  |
| 30.4% | 9.7% | CC(C)(C)OC(=O)CCS[C@H]1[C@@H](C(=O)O)[C@H](c2ccc(Cl)cc2)N(S(=O)(=O)c2ccccc2)[C@@H]1CC1CCCC1 |  |  |
| 9.8% | 7.5% | C=CCS[C@H]1[C@@H](C(=O)O)[C@H](c2ccc(Br)cc2)N(S(=O)(=O)c2ccc(C)cc2)[C@@H]1CCC |  |  |
| 23.1% | 9.3% | C=CCS[C@H]1[C@@H](C(=O)O)[C@H](c2ccc(C#N)cc2)N(S(=O)(=O)c2ccc(C)cc2)[C@@H]1C(C)C |  |  |
| 9.4% | 3.7% | Cc1ccc(S(=O)(=O)N2C(c3cccc(Br)c3)CC=C(C(=O)O)[C@@H]2c2cccc(Br)c2)cc1 (stereo partly shown) |  |  |
| 17% | 15% | Cc1ccc(S(=O)(=O)N2C(c3cccc(Br)c3)CC=C(C(=O)O)[C@@H]2c2cccc(F)c2)cc1 (stereo partly shown) |  |  |
|  |  | Cc1ccccc1S(=O)(=O)N1[C@@H](c2ccc(Cl)cc2)C(C(=O)O)=C[C@H]1CC1CCCC1 | 23.7% | 9.1% |
| 22.3% | 8.1% | C=CCS[C@H]1[C@@H](C(=O)O)[C@H](c2ccc(OC)c(OC)c2)N(S(=O)(=O)c2ccc(C)cc2)[C@@H]1CCCCCC |  |  |
| 35.2% | 19.4% | Cc1ccc(S(=O)(=O)N2C(c3cccc(Br)c3)CC=C(C(=O)O)[C@@H]2c2ccccc2)cc1 (stereo partly shown) |  |  |
| 15.5% | 5.5% | C=CCS[C@H]1[C@@H](C(=O)O)[C@H](c2ccc(Br)cc2)N(S(=O)(=O)c2ccc(C)cc2)[C@@H]1CCCCCC |  |  |

| activity at 50 µM [1, 3] | activity at 50 µM [2, 4] | SMILES | activity at 50 µM [1] | activity at 50 µM [2] |
| --- | --- | --- | --- | --- |
|  |  | Cc1ccc(S(=O)(=O)N2C(c3ccc(Cl)c(Cl)c3)CC=C(C(=O)O)[C@@H]2c2cccc(Br)c2)cc1 (stereo partly shown) | 8.6% | 3.2% |
| 20.2% | 7.8% | CCC[C@@H]1[C@@H](SCCC(=O)OC(C)(C)C)[C@@H](C(=O)O)[C@H](c2cccc(F)c2)N1S(=O)(=O)c1ccc(C)cc1 |  |  |
| 22.5% | 9.8% | CC(C)(C)OC(=O)CCS[C@H]1[C@@H](C(=O)O)[C@H](c2ccc(Cl)cc2)N(S(=O)(=O)c2ccc(Cl)cc2)[C@@H]1CC1CCCC1 |  |  |
| 17.7% | 12.1% | Cc1ccc(S(=O)(=O)N2C(c3ccc(Cl)c(Cl)c3)CC=C(C(=O)O)[C@@H]2c2ccc(Cl)cc2)cc1 (stereo partly shown) |  |  |
| 27.2% | 7.6% | CC[C@@H]1[C@@H](SCCC(=O)OC(C)(C)C)[C@@H](C(=O)O)[C@H](c2ccc(Cl)c(Cl)c2)N1S(=O)(=O)c1ccc(C)cc1 |  |  |
| 15.6% | 12.6% | Cc1ccccc1S(=O)(=O)N1C(c2ccc(Cl)cc2)CC=C(C(=O)O)[C@@H]1c1ccc(F)cc1 (stereo partly shown) |  |  |
| 16.1% | 14.3% | Cc1ccc(S(=O)(=O)N2C(c3cccc(Br)c3)CC=C(C(=O)O)[C@@H]2c2cccc(C)c2)cc1 (stereo partly shown) |  |  |
| 23.1% | 8.4% | C=CCS[C@H]1[C@@H](C(=O)O)[C@H](c2ccc(Cl)cc2)N(S(=O)(=O)c2ccccc2C)[C@@H]1CCCC |  |  |
| 15% | 7.5% | CCCCCC[C@@H]1[C@@H](Sc2ccc(C)cc2)[C@@H](C(=O)O)[C@H](c2ccc(Cl)cc2)N1S(=O)(=O)c1ccccc1 |  |  |
| 21.3% | 9.2% | CCCCCC[C@@H]1[C@@H](Sc2ccc(C)cc2)[C@@H](C(=O)O)[C@H](c2ccc(Cl)c(Cl)c2)N1S(=O)(=O)c1ccc(C)cc1 |  |  |
| 28.4% | 8.9% | C=CCS[C@H]1[C@@H](C(=O)O)[C@H](c2ccc(Cl)cc2)N(S(=O)(=O)c2ccccc2C)[C@@H]1CCC |  |  |
| 30.4% | 9.7% | C=CCS[C@H]1[C@@H](C(=O)O)[C@H](c2cccc(F)c2)N(S(=O)(=O)c2ccc(C)cc2)[C@@H]1CC1CCCC1 |  |  |
| 31.5% | 7.1% | CCCC[C@@H]1[C@@H](Sc2ccc(C)cc2)[C@@H](C(=O)O)[C@H](c2cccc(F)c2)N1S(=O)(=O)c1ccc(C)cc1 |  |  |
| 14.7% | 4.1% | CCC[C@@H]1[C@@H](Sc2ccc(C)cc2)[C@@H](C(=O)O)[C@H](c2cccc(F)c2)N1S(=O)(=O)c1ccc(C)cc1 |  |  |
| 9.8% | 7.9% | Cc1ccc(S(=O)(=O)N2C(c3cccc(Br)c3)CC=C(C(=O)O)[C@@H]2c2cccc(Cl)c2)cc1 (stereo partly shown) |  |  |
| 21.7% | 9.2% | CCC[C@@H]1[C@@H](SCCC(=O)OC(C)(C)C)[C@@H](C(=O)O)[C@H](c2ccc(Cl)cc2)N1S(=O)(=O)c1ccc(Cl)cc1 |  |  |
|  |  | Cc1ccc(S(=O)(=O)N2C(c3ccc(Cl)c(Cl)c3)CC=C(C(=O)O)[C@@H]2c2ccc(Br)cc2)cc1 (stereo partly shown) | 18.7% | 11.3% |
| 27.4% | 3.5% | CCCC[C@@H]1[C@@H](Sc2ccc(OC)cc2)[C@@H](C(=O)O)[C@H](c2cccc(F)c2)N1S(=O)(=O)c1ccc(C)cc1 |  |  |
| 20.1% | 7.4% | CCCCCC[C@@H]1[C@@H](SC2CCCC2)[C@@H](C(=O)O)[C@H](c2ccc(C#N)cc2)N1S(=O)(=O)c1ccc(C)cc1 |  |  |
| 16.1% | 7.3% | Cc1ccc(S(=O)(=O)N2[C@H](CC3CCCC3)[C@@H](SCCC(=O)OC(C)(C)C)[C@@H](C(=O)O)[C@@H]2c2ccc(Cl)c(Cl)c2)cc1 |  |  |
